Experiment [1] deals with Butyrylcholinesterase (Rattus norvegicus, UniProt Q9JKC1). Description: In vitro inhibitory concentration against butyrylcholinesterase was determined using rat serum homogenate.
Experiment [2] addresses T1, Acetylcholinesterase (Rattus norvegicus, UniProt P37136).
T1 sequence (P37136 whole entry): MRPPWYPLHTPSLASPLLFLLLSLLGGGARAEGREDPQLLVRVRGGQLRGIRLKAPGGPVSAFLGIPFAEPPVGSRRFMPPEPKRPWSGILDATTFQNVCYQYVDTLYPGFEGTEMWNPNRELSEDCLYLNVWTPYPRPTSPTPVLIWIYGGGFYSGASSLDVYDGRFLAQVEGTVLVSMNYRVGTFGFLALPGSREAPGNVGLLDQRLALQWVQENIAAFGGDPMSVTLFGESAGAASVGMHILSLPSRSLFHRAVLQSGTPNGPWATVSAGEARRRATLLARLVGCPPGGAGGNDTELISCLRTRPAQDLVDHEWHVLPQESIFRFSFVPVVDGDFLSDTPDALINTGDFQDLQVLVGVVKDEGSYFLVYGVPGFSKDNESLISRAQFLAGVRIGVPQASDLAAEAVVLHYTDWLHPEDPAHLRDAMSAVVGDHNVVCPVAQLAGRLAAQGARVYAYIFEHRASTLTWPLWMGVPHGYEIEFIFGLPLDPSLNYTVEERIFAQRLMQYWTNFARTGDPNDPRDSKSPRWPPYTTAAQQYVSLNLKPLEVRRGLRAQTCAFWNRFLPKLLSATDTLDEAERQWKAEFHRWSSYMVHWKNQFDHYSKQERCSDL
Description: In vitro inhibitory concentration against rat cortex acetylcholinesterase

Butyrylcholinesterase, sequence (Q9JKC1 whole entry): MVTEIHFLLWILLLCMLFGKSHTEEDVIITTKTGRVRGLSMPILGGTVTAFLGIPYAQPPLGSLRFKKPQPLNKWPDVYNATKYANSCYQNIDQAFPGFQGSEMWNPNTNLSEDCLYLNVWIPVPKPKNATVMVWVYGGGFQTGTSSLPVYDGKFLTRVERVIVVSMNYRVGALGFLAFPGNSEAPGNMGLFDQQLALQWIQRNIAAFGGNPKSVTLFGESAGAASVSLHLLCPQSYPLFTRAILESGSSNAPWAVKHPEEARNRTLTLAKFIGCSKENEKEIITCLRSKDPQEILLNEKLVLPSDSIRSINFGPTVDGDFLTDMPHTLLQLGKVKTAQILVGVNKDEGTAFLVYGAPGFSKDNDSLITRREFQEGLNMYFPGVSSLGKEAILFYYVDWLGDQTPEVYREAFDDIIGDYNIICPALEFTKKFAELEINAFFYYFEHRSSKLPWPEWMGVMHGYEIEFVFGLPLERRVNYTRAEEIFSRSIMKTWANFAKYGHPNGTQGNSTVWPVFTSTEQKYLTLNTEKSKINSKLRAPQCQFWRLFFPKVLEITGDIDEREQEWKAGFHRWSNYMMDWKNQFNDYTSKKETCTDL

Consider `COc1cc2c(cc1OC)C(=O)C(Oc1cccc(CN3CCN(C)CC3)c1)C2` (stereo not drawn), for which the IC50 is 209 µM in experiment [1] and 6.41 µM in experiment [2].
On the same counts, the results for `COc1cc2c(cc1OC)C(=O)C(Oc1cccc(CN3CCCCC3)c1)C2` (stereo not drawn) are 55.5 µM and 3.18 µM.
On the same counts, the results for `COc1cc2c(cc1OC)C(=O)C(Oc1cccc(C(C)N3CCCC3)c1)C2` (stereo not drawn) are 212 µM and 1.96 µM.
`COc1cc2c(cc1OC)C(=O)C(Oc1cccc(CN3CCCC3)c1)C2` (stereo not drawn) registered an IC50 in experiment [1] of 39.5 µM.
Take `COc1cc2c(cc1OC)C(=O)C(Oc1ccc(C(C)N3CCOCC3)cc1)C2` (stereo not drawn): the IC50 in experiment [1] was 346 µM; in experiment [2], 3.14 µM.
On the same counts, the results for `CCN(CC)Cc1cccc(OC2Cc3cc(OC)c(OC)cc3C2=O)c1` (stereo not drawn) are 190 µM and 2.28 µM.
For `COc1cc2c(cc1OC)C(=O)C(Oc1ccc(CN3CCOCC3)cc1)C2` (stereo not drawn), the figures for the IC50 in experiment [1] and in experiment [2] were 384 µM and 1.3 µM, respectively.
On the same counts, the results for `CCN(CC)C(C)c1ccc(OC2Cc3cc(OC)c(OC)cc3C2=O)cc1` (stereo not drawn) are 234 µM and 0.22 µM.
`COc1cc2c(cc1OC)C(=O)C(Oc1cccc(C(C)N3CCOCC3)c1)C2` (stereo not drawn) returned an IC50 in experiment [1] of 247 µM.
Still for that read-out and setting: then `COc1cc2c(cc1OC)C(=O)C(Oc1cccc(CN3CCOCC3)c1)C2` (stereo not drawn), with 219 µM.
Consider `COc1cc2c(cc1OC)C(=O)C(Oc1cccc(C(C)N3CCCCC3)c1)C2` (stereo not drawn), for which the 50% inhibitory concentration (IC50) in experiment [1] was 158 µM; in experiment [2], 3.58 µM.
In the case of `COc1cc2c(cc1OC)C(=O)C(Oc1cccc(C(C)N3CCN(C)CC3)c1)C2` (stereo not drawn), the values for the IC50 in experiment [1] and in experiment [2] were 252 µM and 17.6 µM, respectively.
The corresponding values for `CCN(CC)Cc1ccc(OC2Cc3cc(OC)c(OC)cc3C2=O)cc1` (stereo not drawn) are 251 µM and 0.1 µM.
Turning to `COc1cc2c(cc1OC)C(=O)C(Oc1ccc(C(C)N3CCN(C)CC3)cc1)C2` (stereo not drawn), the figures for the IC50 in experiment [1] and in experiment [2] were 393 µM and 2.98 µM, respectively.
As for `COc1cc2c(cc1OC)C(=O)C(Oc1ccc(CN3CCCCC3)cc1)C2` (stereo not drawn), the IC50 in experiment [1] came out at 262 µM; in experiment [2] it was 0.15 µM.
In the case of `COc1cc2c(cc1OC)C(=O)C(Oc1ccc(C(C)N3CCCCC3)cc1)C2` (stereo not drawn), the IC50 in experiment [1] is 176 µM; in experiment [2], 0.13 µM.
For `COc1cc2c(cc1OC)C(=O)C(Oc1ccc(C(C)N(C)C)cc1)C2` (stereo not drawn), in experiment [1], the IC50 amounted to 1370 µM.
With `COc1cc2c(cc1OC)C(=O)C(Oc1ccc(CN3CCN(C)CC3)cc1)C2` (stereo not drawn), the IC50 worked out at 347 µM in experiment [1] and 1.42 µM in experiment [2].
As to `COc1cc2c(cc1OC)C(=O)C(Oc1ccc(CN(C)C)cc1)C2` (stereo not drawn), the figures for the IC50 in experiment [1] and in experiment [2] were 1980 µM and 0.21 µM, respectively.
With `COc1cc2c(cc1OC)C(=O)C(Oc1cccc(C(C)N(C)C)c1)C2` (stereo not drawn), the values for the IC50 in experiment [1] and in experiment [2] were 288 µM and 0.82 µM, respectively.
As to `COc1cc2c(cc1OC)C(=O)C(Oc1ccc(C(C)N3CCCC3)cc1)C2` (stereo not drawn), the IC50 was found to be 130 µM in experiment [1] and 0.14 µM in experiment [2].
On the same counts, the results for `COc1cc2c(cc1OC)C(=O)C(Oc1ccc(CN3CCCC3)cc1)C2` (stereo not drawn) are 84.3 µM and 0.05 µM.
`COc1cc2c(cc1OC)C(=O)C(Oc1cccc(CN(C)C)c1)C2` (stereo not drawn) returned an IC50 in experiment [1] of 207 µM.
Take `CCN(CC)C(C)c1cccc(OC2Cc3cc(OC)c(OC)cc3C2=O)c1` (stereo not drawn): the results for the IC50 in experiment [1] and in experiment [2] were 199 µM and 1.36 µM, respectively.

Broadly, the IC50 is the concentration that gives 50% inhibition. Low values mean greater potency, high ones weaker potency.

Values taken from ChEMBL document CHEMBL1142791, “Design, synthesis, and evaluation of 2-phenoxy-indan-1-one derivatives as acetylcholinesterase inhibitors” (Bioorg Med Chem Lett, 2005).
